Results reported in paper PMC10386914 (Clinical Pharmacokinetics, 2023).

Test: Grade ≥3 toxicity
Assay type: in vivo, human
Details: standard dose; study period

Cc1ccc(Nc2nccc(N(C)c3ccc4c(C)n(C)nc4c3)n2)cc1S(N)(=O)=O [Pazopanib]
patients with grade ≥3 adverse events, wildtype patients: 29%
